Measurements: the CheMixHub ionic liquid set

Experiment: xn = mol fraction of the nth substance listed

CC[n+]1ccn(C)c1.O=S(=O)([N-]S(=O)(=O)C(F)(F)F)C(F)(F)F + CCOC(C)=O
100 kPa
Settings	viscosity [mPa·s]
303.15 K, x2 = 0.2977	12.85
303.15 K, x2 = 0.3962	9.43
303.15 K, x2 = 0.5961	4.75
303.15 K, x2 = 0.7974	1.97
303.15 K, x2 = 0.8979	0.88
308.15 K, x2 = 0	23.29
308.15 K, x2 = 0.2977	11.24
313.15 K, x2 = 0.3962	7.36
313.15 K, x2 = 0.5051	5.15
318.15 K, x2 = 0.1858	11.49
318.15 K, x2 = 0.3962	6.49
318.15 K, x2 = 0.5051	4.36
318.15 K, x2 = 0.8979	0.73
323.15 K, x2 = 0.6909	2.05

C[N+](C)(C)Cc1ccccc1.[Cl-] + O=C([O-])C1=NN(c2ccc(S(=O)(=O)[O-])cc2)C(=O)C1N=Nc1ccc(S(=O)(=O)[O-])cc1.[Na+].[Na+].[Na+] + O
electrical conductivity [S/m], 101.3 kPa, frequency 0.001 MHz
Settings	298.15 K	308.15 K	318.15 K
x2 = 0, x1 = 1.802e-05	0.0137	0.0183	0.0233
x2 = 0, x1 = 5.406e-05	0.0295	0.0398	0.0456
x2 = 0, x1 = 9.009e-05	0.0457	0.0565	0.0643

viscosity [mPa·s], 101.3 kPa
Settings	298.15 K	308.15 K	318.15 K
x2 = 0, x1 = 1.802e-05	0.88	0.726	0.611
x2 = 0, x1 = 5.406e-05	0.897	0.747	0.627
x2 = 0, x1 = 9.009e-05	0.914	0.766	0.646

CC[n+]1ccn(C)c1.COP(=O)([O-])OC + CCO
Settings	viscosity [mPa·s]
293.15 K, 100 kPa, x1 = 0.7006	121.4
298.15 K, 100 kPa, x1 = 0.5013	37.58
298.15 K, 100 kPa, x1 = 0.7006	95.5
298.15 K, 100 kPa, x1 = 0.8011	141.3
298.15 K, 101 kPa, x2 = 0.398	68.8
298.15 K, 101 kPa, x2 = 0.598	23.29
303.15 K, 100 kPa, x1 = 0.3007	10.67
303.15 K, 100 kPa, x1 = 0.5994	48.5
303.15 K, 101 kPa, x2 = 0.398	55.24
308.15 K, 100 kPa, x1 = 1	134.2
308.15 K, 101 kPa, x2 = 0.798	4.904
313.15 K, 100 kPa, x1 = 0.3007	8.34
313.15 K, 100 kPa, x1 = 0.5994	31.82
313.15 K, 100 kPa, x1 = 1	102.6
318.15 K, 100 kPa, x1 = 0.3007	7.45
318.15 K, 101 kPa, x2 = 0.398	31.25
318.15 K, 101 kPa, x2 = 0.598	12.92
323.15 K, 100 kPa, x1 = 0.5013	15.7
323.15 K, 100 kPa, x1 = 0.8011	38.59
328.15 K, 100 kPa, x1 = 0.7006	25.53
328.15 K, 101 kPa, x2 = 0.199	38.21
333.15 K, 100 kPa, x1 = 0.1004	1.71
333.15 K, 100 kPa, x1 = 0.7006	21.5
333.15 K, 100 kPa, x1 = 1	41.05
338.15 K, 100 kPa, x1 = 0.8988	26.44

CCCCCCCC[N+](CCCCCCCC)(CCCCCCCC)CCCCCCCC.[Br-] + CCCCCCCC(=O)O
Settings	electrical conductivity [S/m]
298.1 K, 100 kPa, x1 = 0.333	4.5e-06

CO + COP(=O)([O-])OC.Cn1cc[n+](C)c1
101 kPa, x1 = 1
Settings	viscosity [mPa·s]
303.15 K	0.521
318.15 K	0.44

OC[C@@H](O)[C@@H](O)[C@H](O)[C@@H](O)CO + CCCCCCCCCCCCCCCC[N+](C)(C)C.[Br-] + O
viscosity [mPa·s], 100 kPa
Settings	298.15 K	308.15 K	318.15 K
x1 = 0.0007313, x2 = 1.441e-05	0.921	0.762	–
x1 = 0.0008985, x2 = 7.2e-06	0.923	–	0.634
x1 = 0.001226, x2 = 1.44e-05	–	0.774	–
x1 = 0.001311, x2 = 2.16e-05	0.942	0.779	0.644
x1 = 0.001618, x2 = 1.439e-05	0.949	–	0.649
x1 = 0.001661, x2 = 2.159e-05	0.954	0.788	0.651
x1 = 0.001736, x2 = 7.2e-06	0.949	–	0.651
x1 = 0.001867, x2 = 7.19e-06	–	0.788	0.654
x1 = 0.001983, x2 = 2.158e-05	0.964	–	0.658
x1 = 0.00199, x2 = 1.439e-05	0.96	0.793	0.657
x1 = 0.00225, x2 = 2.157e-05	0.973	0.803	0.664
x1 = 0.002345, x2 = 7.19e-06	0.968	0.799	0.663
x1 = 0.002374, x2 = 1.438e-05	0.972	0.803	0.665
x1 = 0.002657, x2 = 1.438e-05	0.981	0.81	0.67
x1 = 0.002734, x2 = 7.19e-06	0.98	0.809	0.671
x1 = 0.002734, x2 = 2.156e-05	0.989	0.816	0.674

CCCC[n+]1ccn(C)c1.[I-] + [I-].[Li+] + O
viscosity [mPa·s], 100 kPa
Settings	x1 = 0.05, x2 = 0.05	x1 = 0.4, x2 = 0.05
198.25 K	–	1.3e+08
198.65 K	15000	–
203.85 K	6900	1.32e+07
208.75 K	3700	–
209.15 K	–	2900000
213.95 K	1900	490000
218.85 K	1600	180000
224.05 K	1200	68000
228.55 K	–	29000
228.95 K	810	–
233.05 K	470	–
234.15 K	–	15000
236.45 K	320	–
238.25 K	–	8000
241.25 K	220	–
243.85 K	–	3700
246.15 K	150	–
248.75 K	11	–
249.15 K	–	2500
253.95 K	9.7	1600
259.25 K	–	1000
259.65 K	7.7	–
263.4 K	6.1	–
264.1 K	–	600
268.6 K	–	440
268.9 K	5.2	–
273 K	–	280
274 K	4.5	–
278.6 K	4.5	–
279.1 K	–	180
283.55 K	3.9	120
288.45 K	3.6	–
289.15 K	–	82
293.65 K	3.1	65
298.55 K	2.6	41
